# Literature values in patent US4474765A, “Biologically active peptides” (Farmitalia Carlo Erba S.p.A., priority 1982, dated 1984).
# Test system: release of ACTH, β-endorphin, growth hormone, TSH and prolactin
# Conditions: literature, Montecucchi et al. 1979
smiles,measurement,value
CC[C@H](C)[C@H](NC(=O)[C@@H](NC(=O)[C@H](CC(=O)O)NC(=O)[C@H](CC(C)C)NC(=O)[C@H](CC(C)C)NC(=O)[C@H](CC(C)C)NC(=O)[C@H](CCCNC(=N)N)NC(=O)[C@H](CC(N)=O)NC(=O)[C@H](CC(N)=O)NC(=O)[C@H](C)NC(=O)[C@H](C)NC(=O)[C@H](CCC(N)=O)NC(=O)[C@H](CCC(N)=O)NC(=O)[C@H](CCCCN)NC(=O)[C@H](CCC(=O)O)NC(=O)[C@H](CCCCN)NC(=O)[C@H](CCC(=O)O)NC(=O)[C@H](CCC(N)=O)NC(=O)[C@H](CCCCN)NC(=O)[C@H](CCC(=O)O)NC(=O)[C@@H](NC(=O)[C@H](CCC(=O)O)NC(=O)[C@@H](NC(=O)[C@H](CCSC)NC(=O)[C@H](CCCCN)NC(=O)[C@H](CCCNC(=N)N)NC(=O)[C@H](CC(C)C)NC(=O)[C@H](CC(C)C)NC(=O)[C@H](CCC(=O)O)NC(=O)[C@H](CC(C)C)NC(=O)[C@H](CO)NC(=O)[C@H](CC(C)C)NC(=O)[C@H](CC(=O)O)NC(=O)[C@@H](NC(=O)[C@H](CO)NC(=O)[C@@H](NC(=O)[C@@H]1CCCN1C(=O)[C@@H]1CCCN1C(=O)CNC(=O)[C@@H]1CCC(=O)N1)[C@@H](C)CC)[C@@H](C)CC)[C@@H](C)CC)[C@@H](C)CC)[C@@H](C)O)C(N)=O [sauvagine],pharmacological activities (hormone release),"release of ACTH and β-endorphin, and inhibition of the release of growth hormone, TSH and prolactin"
